Experimental findings from ChEMBL document CHEMBL1134339, “New 1-aryl-3-(4-arylpiperazin-1-yl)propane derivatives, with dual action at 5-HT1A serotonin receptors and serotonin transporter, as a new class of antidepressants” (J Med Chem, 2001) are described below.

pKi: −log10 of the molar value.

In test [1] the test system is Rattus norvegicus. Put plainly: Effect on helpless behavior in rats and the number of escape failures was determined in shuttle-box session-3 (SB-3) at 10 mg/kg dose. Format: functional.
Test [2] concerns the target Muscarinic acetylcholine receptor. Put plainly: Affinity at muscarinic receptor, (For atropine Ki(nM)= 3.5+/-0.3). Format: protein assay.
Test [3] has as its target T1, 5-hydroxytryptamine receptor 3A (Rattus norvegicus, UniProt P35563).
T1 sequence (P35563 whole entry): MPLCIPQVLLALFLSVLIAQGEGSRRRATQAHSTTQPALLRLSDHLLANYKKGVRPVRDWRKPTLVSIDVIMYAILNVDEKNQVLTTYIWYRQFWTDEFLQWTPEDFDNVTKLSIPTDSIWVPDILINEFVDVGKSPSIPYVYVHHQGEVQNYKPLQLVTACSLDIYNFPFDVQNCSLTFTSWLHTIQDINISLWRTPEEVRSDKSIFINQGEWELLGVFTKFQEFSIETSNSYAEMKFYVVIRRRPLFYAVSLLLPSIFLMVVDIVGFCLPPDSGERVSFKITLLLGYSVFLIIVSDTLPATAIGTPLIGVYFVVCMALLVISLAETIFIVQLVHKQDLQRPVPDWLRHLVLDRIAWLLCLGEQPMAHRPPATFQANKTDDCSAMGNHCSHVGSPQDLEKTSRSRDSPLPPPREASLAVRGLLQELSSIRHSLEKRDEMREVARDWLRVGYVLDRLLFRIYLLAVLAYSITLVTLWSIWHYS
Put plainly: Affinity at 5-hydroxytryptamine 3 receptor (For granisetron = Ki (nM)=0.3+/-0.01).

As for `COc1ccccc1N1CCN(CCC(O)c2csc3ccccc23)CC1` (stereo not drawn), the “No. of escape failures” value in test [1] came to 4. On to `COc1ccccc1N1CCN(CCC(=O)c2csc3ccccc23)CC1`, for which, in test [2], the Ki (as a rule, the dissociation constant of the complex between target and ligand, obtained from inhibition or displacement) is > 5 µM. In addition, the negative-log Ki (pKi) – broadly, the Ki on a negative log10 scale, so that one unit is a factor of ten – in test [3] was < 5.30.
